Laboratory results taken from the NIST ThermoML archive (doi:10.1016/j.jct.2009.03.005).

Test: wn = mass fraction of the nth substance listed
Settings: 298.15 K, 101 kPa, Liquid; for viscosity: Capillary tube (Ostwald / Ubbelohde) method; for mass density: Pycnometric method

C[S+](C)[O-] [dimethyl sulfoxide] + CC#N
Settings	mass density [kg/m3]	viscosity [mPa·s]
w1 = 0.2	829.3	0.4196
w1 = 0.4	883.3	0.5249
w1 = 0.6	945.6	0.7147
